These results are taken from paper PMC6152618, “Antimicrobial Activity of Truncated and Polyvalent Peptides Derived from the FKCRRWQWRMKKGLA Sequence against Escherichia coli ATCC 25922 and Staphylococcus aureus ATCC 25923” (Molecules : A Journal of Synthetic Chemistry and Natural …, 2017).

Experiment [1] deals with S. aureus. Details: method as in PMID 8980754. The settings on record: cited from earlier work.
The next experiment deals with E. coli L361. Also noted: method as in PMID 8980754. The conditions noted are these: cited from earlier work.
In the next experiment the test system is E. coli O9. Also noted: method as in PMID 8980754. The conditions noted are these: cited from earlier work.
In experiment [2] the test system is Staphylococcus aureus ATCC 25923. In kind it is cell-based. On the procedure:
(§1) The MIC was determined using a microdilution assay. In brief, bacterial strains were incubated for 18 to 24 h at 37 °C in an Müller-Hinton (MH) broth until an optical density of 0.15 to 0.30 (620 nm) was obtained. Next, 90 μL of Mueller-Hinton broth (MHB) was mixed with […], and serial dilutions (200, 100, 50, 25, 12.5 and 6.2) were prepared in 96-well microplates (final volume 100 μL/well). Then, 10 μL of inoculum (2 × 10^6 CFU/mL) was added to each well. The final volume in each well was 100 μL. Then they were incubated for 24 h at 37 °C; the absorbance at 620 nm was measured using an Asys Expert Plus ELISA reader. For determining the MBC, a small sample was taken from each well using an inoculation loop, and then was spread on MH agar plates and incubated overnight at 37 °C. MBC was considered on the plate which presented no bacterial growth. Each of these tests was performed twice (n = 2).

Experiment [3] has as its system Escherichia coli ATCC 25922. It is filed as cell-based. The method, then: as §1
For another experiment, the system named is E. coli ML35. The conditions noted are these: cited from earlier work. The source says: (§2) Please note that in this sequence some C-terminal positions have been changed compared to LfcinB 17–31 [38, 48]. The peptide LfcinB 17–31 has been studied for its relative structure and antibacterial activit ...
Another experiment concerns S. aureus 42D. The conditions noted are these: cited from earlier work.
Source text: as §2

Experiment [4] deals with S. aureus. The settings on record: cited from earlier work.
Source text: as §2

The subject of the next experiment is E coli. The settings on record: cited from earlier work.
Source text: as §2

The mark [5] stands for this setting: microdilution, Mueller-Hinton broth, 24 h at 37 °C, absorbance 620 nm, n = 2.
Setting [6] is: sample of each well spread on MH agar, overnight 37 °C, no bacterial growth, n = 2.

Values after ≈ are worked out from the molar mass of the structure shown. Like-named read-outs stand apart in the source and are kept apart here. Ends that are not written are not given here. A value given as a limit tells only on which side of the number the result lay.

As for “FKCRRWQWR-Homoserine lactone [subfragment 1, literature peptide …-Homoserine lactone]”, the “antibacterial activity against S. aureus” value in the experiment on S. aureus [1] was over 50 µM. In the experiment on E. coli L361, the “antibacterial activity against E. coli L361” value was 10 µM. The “antibacterial activity against E. coli O9” value with E. coli O9 is 15 µM.
As to `CSCC[C@H](NC(=O)[C@H](CCCNC(=N)N)NC(=O)[C@H](Cc1c[nH]c2ccccc12)NC(=O)[C@H](CCC(N)=O)NC(=O)[C@H](Cc1c[nH]c2ccccc12)NC(=O)[C@H](CCCNC(=N)N)NC(=O)[C@H](CCCNC(=N)N)NC(=O)[C@H](C)NC(=O)[C@H](CCCCN)NC(=O)[C@@H](N)Cc1ccccc1)C(=O)N[C@@H](CCCCN)C(=O)N[C@@H](CCCCN)C(=O)N[C@@H](CC(C)C)C(=O)NCC(=O)N[C@@H](C)C(=O)O` [[Ala^19]-LfcinB 17–31], in experiment [2] (ATCC 25923), the “MBC S. aureus ATCC 25923” value was over 200 µM. Besides, the “MIC S. aureus ATCC 25923” value in experiment [2] (ATCC 25923, 24 h) is over 200 µM.
Take FKCRRWQWR-NH2 [LfcinB 17–25]: in [2] (ATCC 25923), the “MBC S. aureus ATCC 25923” value was over 200 µM. The “MIC S. aureus ATCC 25923” value in experiment [2] (ATCC 25923, 24 h) is over 200 µM. For the same compound, in [3] (ATCC 25922), the “MBC E. coli ATCC 25922” value came out at 100 µM. Also, in [3] (ATCC 25922, 24 h), the “MIC E. coli ATCC 25922” value came out at 100 µM.
For CRRWQWRMKKLGA-NH2 [LfcinB 19–31], the “MBC S. aureus ATCC 25923” value in [2] (ATCC 25923) was over 200 µM. Besides, the “MIC S. aureus ATCC 25923” value in experiment [2] (ATCC 25923, 24 h) was over 200 µM. The “MBC E. coli ATCC 25922” value in experiment [3] (ATCC 25922) amounted to 100 µM. In addition, in [3] (ATCC 25922, 24 h), the “MIC E. coli ATCC 25922” value came to 100 µM.
For the compound `CSCC[C@H](NC(=O)[C@H](CCCNC(=N)N)NC(=O)[C@H](Cc1c[nH]c2ccccc12)NC(=O)[C@H](CCC(N)=O)NC(=O)[C@H](Cc1c[nH]c2ccccc12)NC(=O)[C@H](CCCNC(=N)N)NC(=O)[C@H](CCCNC(=N)N)NC(=O)[C@H](CS)NC(=O)[C@H](CCCCN)NC(=O)[C@@H](N)Cc1ccccc1)C(=O)N[C@@H](CCCCN)C(=O)N[C@@H](CCCCN)C(=O)N[C@@H](CC(C)C)C(=O)NCC(=O)N[C@@H](C)C(N)=O` [LfcinB 17–31, reference compound], the “MIC S. aureus ATCC 25923” value in experiment [2] (setting [5]) was over 200 µM. The “MBC S. aureus ATCC 25923” value in experiment [2] (setting [6]) was over 200 µM. Also, the “MIC E. coli ATCC 25922” value in experiment [3] (setting [5]) turned out to be 200 µM (≈ 399 µg/mL). In addition, the “MBC E. coli ATCC 25922” value in experiment [3] (setting [6]) is over 200 µM.
Turning to “LfcinB 20–30: literature analogue of LfcinB 20-31 (CVRRAFALECI; lactoferricin B; UniProt P24627 55-65, looked up, fragment)”, in the experiment on E. coli ML35, the “LD99.9 E. coli ML35” value was 15 µM. Moreover, the “LD99.9 S. aureus 42D” value with S. aureus 42D is 7.5 µM.
In the case of “(FKARRWQWRMKKLGA)2K-Ahx-C [([Ala^19]-LfcinB 17–31)2]”, the “MIC S. aureus ATCC 25923” value in experiment [2] (setting [5]) stood at 12.5 µM. In addition, the “MBC S. aureus ATCC 25923” value in experiment [2] (setting [6]) stood at 12.5 µM.
Turning to FKCRRWQWRMKKL-NH2 [LfcinB 17–29], the “MBC E. coli ATCC 25922” value in experiment [3] (ATCC 25922) was over 200 µM. In [3] (ATCC 25922, 24 h), the “MIC E. coli ATCC 25922” value worked out at 200 µM.
Turning to FKCRRWQWRM-NH2 [LfcinB 17–26], the “MIC S. aureus ATCC 25923” value in experiment [2] (setting [5]) came to 200 µM. The “MBC S. aureus ATCC 25923” value in [2] (setting [6]) stood at 200 µM. For the same compound, the “MIC E. coli ATCC 25922” value in [3] (setting [5]) is 100 µM. Moreover, in experiment [3] (setting [6]), the “MBC E. coli ATCC 25922” value worked out at 200 µM.
For RRWQWRMKKLGA [LfcinB 20–31], the “MBC S. aureus ATCC 25923” value in experiment [2] (ATCC 25923) was over 200 µM. Also, the “MIC S. aureus ATCC 25923” value in experiment [2] (ATCC 25923, 24 h) was over 200 µM. For the same compound, the “MBC E. coli ATCC 25922” value in experiment [3] (ATCC 25922) was over 200 µM. For the same compound, the “MIC E. coli ATCC 25922” value in experiment [3] (ATCC 25922, 24 h) is 200 µM.
As to FKCRRWQWRMK-NH2 [LfcinB 17–27], the “MBC S. aureus ATCC 25923” value in [2] (ATCC 25923) is over 200 µM. Also, the “MIC S. aureus ATCC 25923” value in experiment [2] (ATCC 25923, 24 h) was over 200 µM. In addition, in experiment [3] (ATCC 25922), the “MBC E. coli ATCC 25922” value worked out at 200 µM. For the same compound, the “MIC E. coli ATCC 25922” value in experiment [3] (ATCC 25922, 24 h) came out at 100 µM.
Turning to FKCRRWQWRMKKLG-NH2 [LfcinB 17–30], the “MBC S. aureus ATCC 25923” value in experiment [2] (ATCC 25923) was over 200 µM. In addition, in experiment [2] (ATCC 25923, 24 h), the “MIC S. aureus ATCC 25923” value is over 200 µM. Further, the “MBC E. coli ATCC 25922” value in [3] (ATCC 25922) worked out at 200 µM. Also, the “MIC E. coli ATCC 25922” value in experiment [3] (ATCC 25922, 24 h) came out at 200 µM.
Consider RWQWRWQWR [(LfcinB 21–25)Pal], for which the “MIC E. coli ATCC 25922” value in experiment [3] (ATCC 25922, 24 h) came to 12.5 µM.
Take “KCRRWQWRMKKLGA [LfcinB 18–31, …, truncated peptide of LfcinB 17–31]”: the “MIC S. aureus ATCC 25923” value in experiment [2] (setting [5]) was over 200 µM. The “MBC S. aureus ATCC 25923” value in [2] (setting [6]) was over 200 µM. For the same compound, the “MIC E. coli ATCC 25922” value in experiment [3] (setting [5]) is over 200 µM. The “MBC E. coli ATCC 25922” value in [3] (setting [6]) was over 200 µM.
As to FKCRRWQWRMKK-NH2 [LfcinB 17–28], the “MBC S. aureus ATCC 25923” value in experiment [2] (ATCC 25923) is over 200 µM. In [2] (ATCC 25923, 24 h), the “MIC S. aureus ATCC 25923” value is over 200 µM. For the same compound, in [3] (ATCC 25922), the “MBC E. coli ATCC 25922” value came to 200 µM. Besides, in experiment [3] (ATCC 25922, 24 h), the “MIC E. coli ATCC 25922” value was 200 µM.
On to “RRWQWR-NH2 [LfcinB 20–25, reference compound]”, for which the “MBC S. aureus ATCC 25923” value in experiment [2] (ATCC 25923) is over 200 µM. The “MIC S. aureus ATCC 25923” value in experiment [2] (ATCC 25923, 24 h) is over 200 µM. The “MBC E. coli ATCC 25922” value in experiment [3] (ATCC 25922) was over 200 µM. Moreover, the “MIC E. coli ATCC 25922” value in experiment [3] (ATCC 25922, 24 h) is over 200 µM.
On to SKCYQWQRRMRKLGA, for which, in the experiment with S. aureus [4], the “MIC S. aureus” value was over 500 µM. For the same compound, the “MIC E coli” value in the experiment on E coli was 252 µM.
